US20260265754A1, “CHK1-TARGETING SIRNAS CHEMICALLY MODIFIED WITH GEMCITABINE” (Sirnaomics, Inc., priority 2024, published 2026)
Counter-ions that a name gives are not always drawn. d = 2'-deoxy (DNA); m = 2'-O-methyl; f = 2'-fluoro

Legend:
[1] = tested on: MiaPaCa-2 (pancreatic cancer) cells; assay: Cell viability assay (CellTiter-Glo), lipofectamine transfection, MiaPaCa-2; type: cell-based; details: for Activity/efficacy in reducing cell viability: MiaPaCa-2 cells, FIG. 1; for Improvement of dose response over gemcitabine alone: MiaPaca2 cells
Description: All cell lines were obtained from ATCC (Rockville, MD). Cells were cultured in standard media supplemented with 10% FBS: Panc 10.05, H1299 and H358 in RPMI-1640 Medium, MiaPaCa-2, HT29 and MDA-MB-231 in DMEM, LS180 in EMEM. All media were obtained from ATCC (Rockville, MD). Cells were seeded in 384-well plates at a density of 0.3×10^3 to 1×10^3 cells/well. On the next day, cells were treated with serially diluted gemcitabine or siRNAs delivered by Lipofectamine RNAiMAX (Life Technologies, Carlsbad, CA). Ninety-six (96) hours after addition of gemcitabine or transfection reagent, the number of viable cells was determined using CellTiter-Glo(R)-2.0 reagent (Promega, Madison, WI) by measuring luminescent signal on a Cytation 5 plate reader (BioTek Inc, Winooski, VT). All values were compared to values generated for cells treated with non-silencing (NS) siRNA or to non-treated control and reported as the percentage cell viability. Values represent the mean±SD (n=4). All values were normalized to values generated for cells treated with a non-silencing siRNA and reported as the percentage cell viability. Calculation ofEC50 values. The EC50 values of the Gemcitabine, or Gemcitabine-modified siRNAs, (half-maximal effective concentration) were derived from a sigmoidal dose-response (variable slope) curve using GraphPad Prism 10.0.2(232) software (GraphPad Software, San Diego, Ca). Combination index (CI) calculation. […] CI=([…])2, where (Dx)1 and (Dx)2 are the doses of drug 1 and drug 2, alone, inhibiting 50%, whereas (D1) is the dose of drug 1 in combination, and (D2) the dose of drug 2 in combination that gives the experimentally observed 50% inhibition. These siRNA constructs were tested for their ability to reduce viability of pancreatic cancer using Miapaca2 cells after lipofectamine transfection of the siRNAs at varying concentrations. All of the constructs could inhibit the viability of these cells by 100% at concentrations below 100 nM. The contribution of the gemcitabine within the constructs was studied by making and evaluating constructs lacking the gemcitabine.

[2] = PNP particle size and zeta potential by dynamic light scattering; type: physicochemical; set-up: Nanoparticle size: unit not given here; details: for Nanoparticle size: siRNA formulated with HKP(+H), dynamic light scattering
Description: To test the efficacy of the products in vivo siRNAs (non-silencing siRNA (Control; NS), and PGN6) were formulated with a branched histidine lysine polymer (HKP (+H)) to form peptide nanoparticle (PNP) formulations were prepared using a microfluidic mixing system with a staggered herringbone patterned mixer (Precision NanoSystems, Vancouver, BC, Canada). HKP(+H) stock was prepared in water and diluted to appropriate concentrations. PolyGem siRNA or non-silencing (NS) siRNA stocks were prepared in water. The HKP(+H) and siRNA were mixed at a volume ratio of 1:1 at 8-10 mL/min total flow rate. Formulations were incubated for 30 min at room temperature. Particle size and zeta potential were then determined by dynamic light scattering with a Zetasizer Ultra (Malvern Panalytical, MA). A gel retardation assay was used to evaluate the efficiency of complex formation. Briefly, pre-formed PNPs were mixed with RNA loading dye and applied to 2% agarose gel. The gel was run in 0.5×TBE for 15 min. Electrophoretic mobility of the siRNA-nanoparticles was analyzed on a gel imaging system.

[3] = tested on: OVCAR-3 (ovarian cancer) cells; assay: Cell viability assay, lipofectamine transfection, OVCAR-3; type: cell-based; details: OVCAR-3 cells, FIG. 2L
Description: (§1) Cells were seeded in 384-well plates at a density of 0.3×10^3 to 1×10^3 cells/well. On the next day, cells were treated with serially diluted gemcitabine or siRNAs delivered by Lipofectamine RNAiMAX (Life Technologies, Carlsbad, CA). Ninety-six (96) hours after addition of gemcitabine or transfection reagent, the number of viable cells was determined using CellTiter-Glo(R)-2.0 reagent (Promega, Madison, WI) by measuring luminescent signal on a Cytation 5 plate reader (BioTek Inc, Winooski, VT). All values were compared to values generated for cells treated with non-silencing (NS) siRNA or to non-treated control and reported as the percentage cell viability. Values represent the mean±SD (n=4). All values were normalized to values generated for cells treated with a non-silencing siRNA and reported as the percentage cell viability. Calculation ofEC50 values. The EC50 values of the Gemcitabine, or Gemcitabine-modified siRNAs, (half-maximal effective concentration) were derived from a sigmoidal dose-response (variable slope) curve using GraphPad Prism 10.0.2(232) software (GraphPad Software, San Diego, Ca).

MDA-MB-231 (TNBC) cells = assay: Cell viability assay (CellTiter-Glo), lipofectamine transfection, MDA-MB-231; type: cell-based; details: MDA-MB-231 cells, FIG. 2K
Description: as §1, with “All cell lines were obtained from ATCC (Rockville, MD). Cells were cultured in standard media supplemented with 10% FBS: Panc 10.05, H1299 and H358 in RPMI-1640 Medium, MiaPaCa-2, HT29 and MDA-MB-231 in DMEM, LS180 in EMEM. All media were obtained from ATCC (Rockville, MD). Cells” for “Cells”

H358 cells (KRAS G12C) = assay: Cell viability assay (CellTiter-Glo), lipofectamine transfection, H358; type: cell-based
Description: (§2) All cell lines were obtained from ATCC (Rockville, MD). Cells were cultured in standard media supplemented with 10% FBS: Panc 10.05, H1299 and H358 in RPMI-1640 Medium, MiaPaCa-2, HT29 and MDA-MB-231 in DMEM, LS180 in EMEM. All media were obtained from ATCC (Rockville, MD).
as §1, with “viability.” for “viability. Calculation ofEC50 values. The EC50 values of the Gemcitabine, or Gemcitabine-modified siRNAs, (half-maximal effective concentration) were derived from a sigmoidal dose-response (variable slope) curve using GraphPad Prism 10.0.2(232) software (GraphPad Software, San Diego, Ca).”
(§3) Calculation ofEC50 values. The EC50 values of the Gemcitabine, or Gemcitabine-modified siRNAs, (half-maximal effective concentration) were derived from a sigmoidal dose-response (variable slope) curve using GraphPad Prism 10.0.2(232) software (GraphPad Software, San Diego, Ca). […]

A549 (G12S) cells = assay: Cell viability assay, A549; type: cell-based
Description: as §1

H1299 (KRAS wt) cells = assay: Cell viability assay (CellTiter-Glo), lipofectamine transfection, H1299; type: cell-based
Description: as §2
as §1, with “viability.” for “viability. Calculation ofEC50 values. The EC50 values of the Gemcitabine, or Gemcitabine-modified siRNAs, (half-maximal effective concentration) were derived from a sigmoidal dose-response (variable slope) curve using GraphPad Prism 10.0.2(232) software (GraphPad Software, San Diego, Ca).”
as §3

H2030 (G12C) cells = assay: Cell viability assay, H2030; type: cell-based
Description: as §1

Molecule: Nc1ccn([C@@H]2O[C@H](CO)[C@@H](O)C2(F)F)c(=O)n1 [gemcitabine, 2′-deoxy-2′,2′-difluorocytidine monohydrochloride]
- IC50 ([1]; Homo sapiens, MIA PaCa-2, MiaPaca-2 cells, 96 h, free gemcitabine or siRNA by lipofectamine): > 10 nM

Molecule: Non-Silencing: Non-silencing siRNA control; SEQ ID Nos. 1-2 (chain 1 CGAGCAGGGUAUCGACGAUUACAAA; chain 2 UUUGUAAUCGUCGAUACCCUGCUCG; RNA, backbone not given here; listed as Homo sapiens) [reference compound]
- Nanoparticle size [2]: 82.6

Molecule: PGN6 (no Gem): Modified Chk1 siRNA as PGN6 lacking gemcitabine; SEQ ID Nos. 7-8 (chain 1 AAGAAAGAGAUCUGUAUCAAU; chain 2 AUUGAUACAGAUCUCUUUCUUTT; chain 1: sugars from the 5' end mmmmmmfmffffmmmmmfmmm, backbone not given here; chain 2: sugars from the 5' end mfmmmfmmmmmmmfmffffffdd, backbone not given here; further chemistry not fully specified)
- Activity/efficacy in reducing cell viability [1]: did not show good efficacy at higher concentrations

Molecule: PGN6: Chk1-targeting siRNA, 2′OMe/2′-fluoro modified, four gemcitabine nucleosides; SEQ ID Nos. 3-4 (chain 1 AAGAAAGAGAUUCGUAUCAAU; chain 2 AUUGAUACAGAUCUCUUUCUUCCUU; 2'-OMe/2'-F modified, four gemcitabine nucleosides, full pattern not given here)
- Activity/efficacy in reducing cell viability [3]: greater potency
- Zeta potential ([2]; siRNA formulated in HKP(+H)): 35.8 mV
- Nanoparticle size [2]: 86.7
- Activity/efficacy in reducing cell viability (MDA-MB-231 (TNBC) cells): greater potency
- Improvement of dose response over gemcitabine alone [1]: 100 fold

Molecule: PGN7 (no Gem): Modified Chk1 siRNA as PGN7 lacking gemcitabine; SEQ ID Nos. 9-10 (chain 1 AAGAAAGAGAUCUGUAUCAAU; chain 2 AUUGAUACAGAUCUCUUUCUUTT; chain 1: sugars from the 5' end mmmmmmfmfffffmfmffmmf, backbone not given here; chain 2: sugars from the 5' end mfmmmfmmmmmfmfmfmfmfmdd, backbone not given here; further chemistry not fully specified)
- Activity/efficacy in reducing cell viability [1]: did not show good efficacy at higher concentrations

Molecule: PGN7: Chk1-targeting siRNA, 2′OMe/2′-fluoro modified, four gemcitabine nucleosides; SEQ ID Nos. 5-6 (chain 1 AAGAAAGAGAUCUGUAUCAAU; chain 2 AUUGAUACAGAUCUCUUUCUUCCUU; 2'-OMe/2'-F modified, four gemcitabine nucleosides, full pattern not given here)
- Activity/efficacy in reducing cell viability [3]: greater potency
- IC50 (H358 cells (KRAS G12C)): ~1 nM
- IC50 (A549 (G12S) cells): ~6 nM
- Activity/efficacy in reducing cell viability (MDA-MB-231 (TNBC) cells): greater potency
- IC50 (H1299 (KRAS wt) cells): ~6 nM
- IC50 (H2030 (G12C) cells): 3 nM
- Improvement of dose response over gemcitabine alone [1]: 100 fold

Molecule: PGN7S (sense AAGAAAGAGAUCUGUAUCAAU; antisense AUUGAUACAGAUCUCUUUCUUCCDUDU; gemcitabine nucleotides; phosphorothioates; 5' LS on antisense; modified_base 1 OTHER; 2'-O-methyl adenosine; modified_base 9 OTHER; 2'-fluoro-guanosine; modified_base 15 OTHER; 2'-fluorouracil; modified_base 21 OTHER; modified_base 16 OTHER; modified_base 6 OTHER; modified_base 17 OTHER; modified_base 19 OTHER; modified_base 5 OTHER; m; modified_base 3 um; modified_base 4 gm; modified_base 7 OTHER; 2)
- Activity/efficacy in reducing cell viability [1]: weaker activity than either PGN6 or PGN7
